Reference: US20220169598A1, “HALOGENATED PHENYLSULFONAMIDE HYDROXAMIC ACID COMPOUNDS, COMPOSITIONS AND USES THEREOF AS SELECTIVE HDAC6 INHIBITORS” (2681603 ONTARIO INC., priority 2019, published 2022)

Key:
[1] = tested on: HeLa cells; experiment: Immunofluorescence analysis of α-tubulin and histone H3 acetylation; assay type: cell-based; conditions: 6 h treatment
Description: Similar analysis is shown for exemplary compound I-34 in FIG. 19.

[2] = Plasma stability by LC-MS; assay type: in vitro ADME; conditions: mouse plasma
Experimental: The stability of select compounds of the application in plasma was assessed quantitatively through LC-MS and the results are shown in Table 6.

[3] = tested on: panel of 97 kinases; experiment: Kinome screen; assay type: biochemical; conditions: kinase screen

Row | Compound | effect on α-tubulin acetylation (immunofluorescence) [1] | half-life [2] [min] | Remaining Percentage (%) 0 min ([2]; 0 min) [%] | Remaining Percentage (%) 15 min ([2]; 15 min) [%] | Remaining Percentage (%) 30 min ([2]; 30 min) [%] | Remaining Percentage (%) 45 min ([2]; 45 min) [%] | Remaining Percentage (%) 60 min ([2]; 60 min) [%] | Remaining Percentage (%) 120 min ([2]; 120 min) [%] | inhibitory activity on a panel of 97 kinases [3]
1 | O=C(NO)c1ccc(CN(C2CC2)S(=O)(=O)c2cc(F)c(F)c(F)c2F)cc1 [Compound I-13, 4-((N-cyclopropyl-2,3,4,5-tetrafluorophenylsulfonamido)methyl)-N-hydroxybenzamide] | substantially strong effect on tubulin acetylation | – | – | – | – | – | – | – | –
2 | O=C(NO)c1ccc(CN(Cc2cccnc2)S(=O)(=O)c2cc(F)c(F)c(F)c2F)cc1 [Compound I-18, N-hydroxy-4-((2,3,4,5-tetrafluoro-N-(pyridin-3-ylmethyl)phenylsulfonamido)methyl)benzamide] | – | 109 | 100 | 96.3 | 63.0 | 54.3 | 51.3 | 50.1 | limited to no inhibitory activity
